This passage reports EC50 results from US9890138B2, “Diaminopyrimidine derivatives and processes for the preparation thereof” (YUHAN CORPORATION, priority 2011, dated 2018).

Structures can show the parent of a compound that is named as a salt.

T1 sequence (Q13639 1-387 isoform Q13639-2): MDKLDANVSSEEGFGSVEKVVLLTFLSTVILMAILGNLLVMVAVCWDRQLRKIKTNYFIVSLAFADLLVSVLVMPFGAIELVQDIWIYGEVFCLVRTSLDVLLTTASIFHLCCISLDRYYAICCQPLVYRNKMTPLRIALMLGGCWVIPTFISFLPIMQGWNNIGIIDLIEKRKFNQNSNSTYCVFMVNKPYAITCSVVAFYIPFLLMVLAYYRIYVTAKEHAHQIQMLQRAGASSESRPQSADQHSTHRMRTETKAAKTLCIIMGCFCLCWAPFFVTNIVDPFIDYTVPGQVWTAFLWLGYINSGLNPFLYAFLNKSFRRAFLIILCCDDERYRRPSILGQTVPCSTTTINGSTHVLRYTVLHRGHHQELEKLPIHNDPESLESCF

This assay has as its target T1, human 5-HT4(a) (Homo sapiens, UniProt Q13639).
T1 construct: host or cells: GeneBlAzer HTR4-CRE-bla CHO-K1 cells
In words: Evaluation of agonistic activity in CHO-K1 cells expressing human 5-HT4(a) (GeneBlAzer HTR4-CRE-bla CHO-K1, beta-lactamase reporter). Type of assay: cell-based. The following applies: CHO-K1 cells stably expressing human 5-HT4(a). The method, boiled down:
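GeneBlAzer HTR4-CRE-bla CHO-K1 cells, 10^4/well overnight, exposed 5 h to compounds at 8 concentrations in medium with 1% DMSO in the added solution. β-lactamase substrate 2 h in dark; 410 nm excitation, 465/535 nm emission ratio; EC50 by non-linear regression.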
The compound `CCCCc1cc(N2CC[C@H](NCC)C2)nc(Nc2ccc(Cl)c(N)c2)n1` [Example 471] registered a half-maximal effective concentration (EC50) of 3.3 pM. To `CCCc1cc(N2CC[C@H](NC(=O)CO)C2)nc(Nc2ccc(C)c(C#N)c2)n1` [Example 472, (S)—N-{1-[2-(3-cyano-4-methylphenylamino)-6-propylpyrimidin-4-yl]pyrrolidin-3-yl}-2-hydroxyacetamide] belongs 7.5 pM; to `CCCc1cc(N2CC[C@H](NC(=O)CO)C2)nc(Nc2ccc(F)c(C#N)c2)n1` [Example 473], 22 pM; to `CCCc1cc(N2CC[C@H](NC(=O)CO)C2)nc(Nc2cc(N)cc(C#N)c2)n1` [Example 474, (S)—N-{1-[2-(3-amino-5-cyanophenylamino)-6-propylpyrimidin-4-yl]pyrrolidin-3-yl}-2-hydroxyacetamide], 6.6 pM. `CCCc1cc(N2CC[C@H](NC(=O)CO)C2)nc(Nc2cc(N)cc(C(F)(F)F)c2)n1` [Example 475]: the concentration giving a half-maximal response (EC50) came to 11 pM. Consider `CCCc1cc(N2CC[C@H](NC(=O)CO)C2)nc(Nc2ccc(N)c(C(F)(F)F)c2)n1` [Example 476], for which the concentration giving a half-maximal response (EC50) is 14 pM. To `CCCc1cc(N2CC[C@H](NC(=O)CO)C2)nc(Nc2ccc(F)c(C(F)(F)F)c2)n1` [Example 477] belongs 9.6 pM; to `CCCc1cc(N2CC[C@H](NC(=O)CO)C2)nc(Nc2ccc(F)c(N)c2)n1` [Example 478], 24 pM; to `CCCc1cc(N2CC[C@H](NC(=O)CO)C2)nc(Nc2ccc(Cl)c(N)c2)n1` [Example 479], 6.4 pM. On to `CCCc1cc(N2CC[C@H](NC(=O)CO)C2)nc(Nc2ccc(C)c(Cl)c2)n1` [Example 480], for which a half-maximal effect (EC50) was put at 32 pM. To `CCCc1cc(N2CC[C@H](NC(=O)CO)C2)nc(Nc2ccc(C)c(C(F)(F)F)c2)n1` [Example 481] belongs 9.3 pM; to `CCCc1cc(N2CC[C@H](NC)C2)nc(Nc2ccc(F)c(N)c2)n1` [Example 484], 5.8 pM. Under `CCCc1cc(N2CC[C@H](NC)C2)nc(Nc2cc(N)cc(C#N)c2)n1` [Example 485] stands 2.4 pM. Under `CCCc1cc(N2CC[C@H](NC)C2)nc(Nc2ccc(N)c(C#N)c2)n1` [Example 486] stands 1.4 pM; under `CCCc1cc(N2CC[C@H](NC)C2)nc(Nc2cc(N)cc(C(F)(F)F)c2)n1` [Example 487], 2.1 pM; under `CCCc1cc(N2CC[C@H](NCC)C2)nc(Nc2ccc(N)c(C#N)c2)n1` [Example 489], 1.5 pM.

Consider `CCCc1cc(N2CC[C@H](NC)C2)nc(Nc2ccc(F)c(C(F)(F)F)c2)n1` [Example 490], for which the EC50 amounted to 4.8 pM.

In the case of `CCCc1cc(N2CC[C@H](NCC)C2)nc(Nc2ccc(F)c(C(F)(F)F)c2)n1` [Example 491, (S)-4-[3-(ethylamino)pyrrolidin-1-yl]-N-[4-fluoro-3-(trifluoromethyl)phenyl]-6-propylpyrimidin-2-amine hydrochloride], a half-maximal effect (EC50) was put at 2.9 pM. Under `CCCCc1cc(N2CC[C@H](NC(C)=O)C2)nc(Nc2ccc(C)c(C#N)c2)n1` [Example 492, (S)-N-{1-[6-butyl-2-(3-cyano-4-methylphenylamino)pyrimidin-4-yl]pyrrolidin-3-yl}acetamide hydrochloride] stands 19 pM.

On to `CCCc1cc(N2CC[C@H](NC(C)=O)C2)nc(Nc2ccc(C)c(N)c2)n1` [Example 493, (S)-N-{1-[2-(3-amino-4-methylphenylamino)-6-propylpyrimidin-4-yl]pyrrolidin-3-yl}acetamide hydrochloride], for which the midpoint of the response, the EC50, lay at 24 pM. “(S)-2-{1-[2-(indolin-6-ylamino)-6-propylpyrimidin-4-yl]pyrrolidin-2-yl}methanol [Example 217]”: the concentration giving a half-maximal response (EC50) was 230 pM. Compound “(S)-3-amino-5-[4-(3-aminopyrrolidin-1-yl)-6-propylpyrimidin-2-amino]benzonitrile [Example 362]” had an EC50 of 2.1 pM.
